Experimental data taken from patent US6383479B1, “Neutrophil-activating factor” (Novartis AG, priority 1987, dated 2002).

Columns and labels:
[1] = system: New Zealand albino rabbits; test: neutrophil accumulation and plasma leakage in rabbit skin after intradermal injection; format: in vivo
Excerpt: Inflammatory responses are examined in the skin of conscious 2.0 to 2.5 kg New Zealand albino rabbits. Erythrocytes in blood from donor rabbits are sedimented with hydroxyethyl cellulose (Polysciences, Warrington, Pa.) and neutrophils in the resultant leucocyte-rich plasma are purified (>94% neutrophils) by density gradient centrifugation on Percoll (Pharmacia, Uppsala, Sweden). Cells are resuspended in Ca^2+ and Mg^2+—free Tyrode's solution containing 10% platelet poor plasma to a concentration of 10^6 leukocytes/ml and labeled for 15 min at room temperature with 40 μCi ^111indium-oxine (Amersham) per 10^6 cells. The labeled cells are washed by centrifugation through 10% platelet-poor plasma and approximately 10^6 cells per recipient are mixed with 10 μCi ^125iodine-labeled human serum albumin (Amersham) and injected intravenously through the lateral ear vein of rabbits with inflammatory lesions under study. Intradermal injections of inflammatory agents are then made and animals are killed 2 h later in studies with actinomycin D and polymyxin B, and 4 h later in dose-response experiments. Midway through the period that radiolabeled cells are in circulation, a blood sample is collected and the specific activities of neutrophils and plasma in blood are determined. Radioactivity in inflammatory lesions at the end of each experiment are determined in a multichannel gamma counter, the activity in control skin sites is subtracted and the absolute number of neutrophils and volume of plasma accumulating in inflammatory lesions are calculated from the specific activities. Neutrophil numbers in inflammatory lesions are standardised between animals by expressing the results as cell number per 10^6 neutrophils circulating per ml peripheral blood, according to the method of Cybulsky et al., Am. J. Pathol. 124 [1986] 367.
Recombinant NAF obtained as described under Example 19 is dissolved at 400 μg/ml in minimal essential medium (50 mM) plus 0.45 M NaCl (pH 6.5). Endotoxin (E. coli serotype 055:B5, Sigma, St. Louis, Mo.) is dissolved in pyrogen-free normal saline. fMLP is dissolved in dimethyl sulphoxide at 10^−2 M and diluted to working concentrations in PFS. Polymyxin B and actinomycin D are dissolved in 1 ml ethanol and diluted 20 fold by mixing with NAF, endotoxin or fMLP in PFS. In studies on inhibition of inflammatory responses 40 μg polymyxin B and 10^−7 moles actinomycin D are injected per skin site with […] endotoxin. In all experiments 0.2 ml of inflammatory agents are injected intradermally per site through 26 gauge needles, with 5 replicates of each treatment in each animal.

[2] = system: human neutrophils; test: superoxide formation (SOD-sensitive cytochrome c reduction) by human neutrophils; format: cell-based; conditions: per 10^6 cells
Description: a) Superoxide production: neutrophils (3×10^6 /ml) are preincubated at 37° with or without 1 μm PAF for 2 minutes and then stimulated with increasing amounts of NAF. Recordings of cytochrome c reduction following NAF addition are shown.
Superoxide formation is measured at 37° as the SOD sensitive reduction of ferricytochrome c (M. Markert et al., Methods Enzymol. 132 [1984] 267). The assay mixture (800 μl) consists of 0.75×10^6 cells/ml PBS-BSA containing 85 μM cytochrome c. Absorbance changes are recorded in a Hewlett-Packard 8451A diode array spectrophotometer equipped with a thermostated seven-place cuvette exchanger. Table 4 documents the capacity of NAF to elicit the respiratory burst in human neutrophils: […]

[3] = system: human neutrophils; test: stimulus-dependent exocytosis of granule contents by human neutrophils; format: cell-based
Description: Neutrophils (5×10^6/ml) suspended in PBS/BSA are preincubated with or without cytochalasin B (5 μg/ml) at 37° for 5 min.
Granule release is then initiated by adding the stimulus, e.g. NAF or a standard stimulus. The reaction is stopped 15 min later by rapid cooling in ice followed by centrifugation to sediment the cells. Vitamin B12-binding protein, β-glucuronidase and lactate dehydrogenase are determined in the cell-free media and cell pellets, and the release of these constituents is calculated in percent of the total cellular content (B. Dewalt and M. Baggiolini, Methods Enzymol. 132 [1986] 267).
Natural and recombinant NAF are tested in parallel on human neutrophils. They elicit virtually identical changes in cytosolic free Ca^2+, yielding a maximum rise at a concentration as low as 3 nM (FIG. 15). A nearly identical concentration-dependent respiratory burst response is obtained with both preparations in the range of 1 to 30 nM as assessed by chemiluminescence. The equivalence between natural and recombinant NAF is also reflected by chemotaxis and exocytosis measurements. Chemotactic migration is observed between 0.1 and 10 nM with a maximum effect at 1 nM. (Table 6). With either peptide a significant release of vitamin B12-binding protein from the specific granules at 0.3 nM and of beta-glucuronidase from the azurophil granules at 1 nM is observed.

[4] = system: human neutrophils; test: hydrogen peroxide formation by chemiluminescence in human neutrophils; format: cell-based
Description: b) H2O2-dependent chemiluminescence: the progress curves following stimulation with partially purified NAF and approximately equiactive concentrations of C5a and fMLP are shown on the left. The initial phase of the response is detailed on the right. The stimulants are added in 50 μl of PBS-BSA.
Lower graphs: respiratory burst induced by natural (left) and recombinant (right) NAF. Neutrophils (10^6 cells/ml) are stimulated with 3, 10 and 30 nM NAF at time zero and hydrogen peroxide production is measured by chemiluminescence (M. P. Wymann et al., Anal. Biochem. 165 [1987] 371-378).
The properties of NAF, fMLP and C5a as stimuli of the respiratory burst are compared by assessing the production of superoxide or hydrogen peroxide by the stimulated cells. Superoxide formation is determined as described in Example 13. Hydrogen peroxide formation is determined by chemiluminescence (M. P. Wymann et al., Anal. Biochem. 165 [1987] 371-378). The assay mixture consisting of PBS-BSA containing 0.1 M sodium azide, 0.01 mM luminol, 9 U/ml horseradish peroxidase and 10^6 neutrophils is preincubated for 10 min at 37° and the reaction is started by adding the stimulus via a microsyringe.

[5] = recombinant NAF intradermal, 10^−11 to 10^−9 moles per site, 4 h
[6] = NAF 50 μl, with CB (cytochalasin B 5 μg/ml)
[7] = NAF 100 μl, with CB (cytochalasin B 5 μg/ml)

## neutrophil-activating factor [NAF]
[1]; in vivo, rabbit skin
  molar potency relative to C5a and LTB: comparable
[1]; [5]
  neutrophil accumulation in skin sites: dose-dependent increase
  plasma leakage into skin sites: dose-dependent increase
[2]; NAF 5 μl
  Cytochrome c reduction, Maximum rate: 0.81 nmol/min
  Cytochrome c reduction, Total in 3 min: 0.89 nmol
[2]; NAF 10 μl
  Cytochrome c reduction, Maximum rate: 1.45 ± 0.63 nmol/min
  Cytochrome c reduction, Total in 3 min: 1.45 ± 0.50 nmol
[2]; NAF 20 μl
  Cytochrome c reduction, Maximum rate: 2.32 ± 0.56 nmol/min
  Cytochrome c reduction, Total in 3 min: 2.16 ± 0.39 nmol
[2]; NAF 30 μl
  Cytochrome c reduction, Maximum rate: 2.51 ± 0.50 nmol/min
  Cytochrome c reduction, Total in 3 min: 2.30 ± 0.55 nmol
[2]; NAF 50 μl
  Cytochrome c reduction, Maximum rate: 3.51 ± 0.69 nmol/min
  Cytochrome c reduction, Total in 3 min: 3.10 ± 0.55 nmol
[2]; NAF 100 μl
  Cytochrome c reduction, Maximum rate: 3.69 nmol/min
  Cytochrome c reduction, Total in 3 min: 3.39 nmol
[3]; [6]
  Percent release of Vit. B12-binding protein: 25.6 ± 3.4%
  Percent release of lactate dehydrogenase: 6.7 ± 1.6%
  Percent release of β-glucuronidase: 7.9 ± 2.0%
[3]; NAF 50 μl, without CB
  Percent release of Vit. B12-binding protein: 12.9 ± 1.6%
  Percent release of lactate dehydrogenase: 5.8 ± 0.7%
  Percent release of β-glucuronidase: 2.7 ± 1.3%
[3]; [7]
  Percent release of Vit. B12-binding protein: 26.8 ± 4.9%
  Percent release of lactate dehydrogenase: 7.3 ± 2.1%
  Percent release of β-glucuronidase: 8.5 ± 1.7%
[3]; NAF 100 μl, without CB
  Percent release of Vit. B12-binding protein: 13.9 ± 2.1%
  Percent release of lactate dehydrogenase: 6.8 ± 2.2%
  Percent release of β-glucuronidase: 3.0 ± 1.3%
[4]
  time between stimulus addition and onset of H2O2 production: about 2 sec
